Source: patent US12157730B2, “Heteroaryl derivative, method for producing same, and pharmaceutical composition comprising same as effective component” (VORONOI INC., priority 2019, dated 2024)

Molecular target: T1, Ba/F3 cell EGFR Exon20 ins NPH (Homo sapiens, UniProt P00533, INS773NPH)
T1 construct: expressed in transfected cells; host or cells: Ba/F3
Assay: Ba/F3 cell proliferation suppression, EGFR Exon20 ins NPH
Format: cell-based
Conditions: GI50 class; Ba/F3 cell line with NPH inserted at Exon20 of EGFR; 72 hours
Procedure, shortened: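 Growth suppression determined as GI50 following 72 h exposure across 12 concentrations up to 50 um, with viability by luminescent ATP assay (CellTiter-Glo).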

| SMILES | Ba/F3 (NPH) Activity |
| --- | --- |
| C=CC(=O)Nc1cc(Nc2cc(N3OCC[C@@H]3c3cccc(Cl)c3Cl)ncn2)c(OC)cc1N1CCC(N2CCN(C3CCCC3)CC2)CC1 [Example 206, N-(2-(4-(4-cyclopentylpiperazine-1-yl)piperidine-1-yl)-5-((6-((R)-3-(2,3-dichlorophenyl)isoxazolidine-2-yl)pyrimidine-4-yl)amino)-4-methoxyphenyl) acrylamide] | B (50 nM ≤ GI50 < 500 nM) |
| C=CC(=O)Nc1cc(Nc2cc(N3OCC[C@@H]3c3c(F)ccc(F)c3F)ncn2)c(OC)cc1N1CCC(N2C[C@@H](C)O[C@@H](C)C2)CC1 [compound 644, N-(2-(4-((2S,6R)-2,6-dimethylmorpholino)piperidine-1-yl)-4-methoxy-5-((6-((R)-3-(2,3,6-trifluorophenyl)isoxazolidine-2-yl)pyrimidine-4-yl)amino)phenyl)acrylamide] | A (GI50 < 50 nM) |
| C=CC(=O)Nc1cc(Nc2cc(N3OCC[C@@H]3Cc3cccc(F)c3)ncn2)c(OC)cc1N1CCC(N2C[C@H]3CC[C@@H](C2)N3C2CC2)CC1 [compound 995, N-(2-(4-((1R,5S)-8-cyclopropyl-3,8-diazabicyclo [3.2.1]octan-3-yl)piperidine-1-yl)-5-((6-((S)-3-(3-fluorobenzyl)isoxazolidine-2-yl)pyrimidine-4-yl)amino)-4-methoxyphenyl) acrylamide] | A (GI50 < 50 nM) |
| C=CC(=O)Nc1cc(Nc2cc(N3OCC[C@@H]3c3cccc(Cl)c3F)ncn2)c(OC)cc1N1CCC(N2CCN(C(C)C)CC2)CC1 [compound 707, N-(5-((6-((R)-3-(3-chloro-2-fluorophenyl)isoxazolidine-2-yl)pyrimidine-4-yl)amino)-2-(4-(4-isopropylpiperazine-1-yl)piperidine-1-yl)-4-methoxyphenyl) acrylamide] | A (GI50 < 50 nM) |
| C=CC(=O)Nc1cc(Nc2cc(N3OCC[C@@H]3c3ccc(F)c(F)c3)ncn2)c(OC)cc1N1CCC(N2C[C@@H](C)O[C@@H](C)C2)CC1 [compound 543, N-(5-((6-((R)-3-(3,4-difluorophenyl)isoxazolidine-2-yl)pyrimidine-4-yl)amino)-2-(4-((2S,6R)-2,6-dimethylmorpholino)piperidine-1-yl)-4-methoxyphenyl) acrylamide] | A (GI50 < 50 nM) |
| C=CC(=O)Nc1cc(Nc2cc(N3OCC[C@@H]3Cc3cc(F)cc(F)c3)ncn2)c(OC)cc1N(C)CCN(C)C [compound 1031, N-(5-((6-((S)-3-(3,5-difluorobenzyl)isoxazolidine-2-yl)pyrimidine-4-yl)amino)-2-((2-(dimethylamino)ethyl)(methyl)amino)-4-methoxyphenyl) acrylamide] | A (GI50 < 50 nM) |
| C=CC(=O)Nc1cc(Nc2cc(N3OCC[C@@H]3c3cc(F)cc(Cl)c3)ncn2)c(OC)cc1N1CCN(C2COC2)CC1 [compound 597, N-(5-((6-((R)-3-(3-chloro-5-fluorophenyl)isoxazolidine-2-yl)pyrimidine-4-yl)amino)-4-methoxy-2-(4-(oxetane-3-yl)piperazine-1-yl)phenyl) acrylamide] | A (GI50 < 50 nM) |
| C=CC(=O)Nc1cc(Nc2cc(N3OCC[C@@H]3c3cccc(Cl)c3)ncn2)c(OC)cc1N(C)CCN(C)C [compound 359, N-(5-((6-((R)-3-(3-chlorophenyl)isoxazolidine-2-yl)pyrimidine-4-yl)amino)-2-((2-(dimethylamino)ethyl)(methyl)amino)-4-methoxyphenyl) acrylamide] | A (GI50 < 50 nM) |
| C=CC(=O)Nc1cc(Nc2cc(N3OCC[C@@H]3c3cccc(C(F)(F)F)c3)ncn2)c(OC)cc1N1CCC(N(C)C)CC1 [compound 451, N-(2-(4-(dimethlamino)piperidine-1-yl)-4-methoxy-5-((6-((R)-3-(3-(trifluoromethyl)phenyl)isoxazolidine-2-yl)pyrimidine-4-yl)amino)phenyl) acrylamide] | A (GI50 < 50 nM) |
| C=CC(=O)Nc1cc(Nc2cc(N3OCC[C@@H]3c3cc(F)cc(Cl)c3)ncn2)c(OC)cc1N1CCN(C)CC1 [compound 537, N-(5-((6-((R)-3-(3-chloro-5-fluorophenyl)isoxazolidine-2-yl)pyrimidine-4-yl)amino)-4-methoxy-2-(4-methylpiperazine-1-yl)phenyl)acrylamide] | A (GI50 < 50 nM) |
| C=CC(=O)Nc1cc(Nc2cc(N3OCC[C@@H]3c3cc(F)cc(F)c3)ncn2)c(OCC)cc1N1CCC(N2CCN(C3CC3)CC2)CC1 [Example 116, N-(2-(4-(4-cyclopropylpiperazine-1-yl)piperidine-1-yl)-5-((6-((R)-3-(3,5-difluorophenyl)isoxazolidine-2-yl)pyrimidine-4-yl)amino)-4-ethoxyphenyl) acrylamide] | C (500 nM ≤ GI50 < 5000 nM) |
| C=CC(=O)Nc1cc(Nc2cc(N3OCC[C@@H]3c3cccc(C)c3F)ncn2)c(OC)cc1N1CCC(N2CCN(C(C)=O)CC2)CC1 [compound 421, N-(2-(4-(4-acetylpiperazine-1-yl)piperidine-1-yl)-5-((6-((R)-3-(2-fluoro-3-methylphenyl)isoxazolidine-2-yl)pyrimidine-4-yl)amino)-4-methoxyphenyl) acrylamide] | A (GI50 < 50 nM) |
| C=CC(=O)Nc1cc(Nc2cc(N3OCC[C@@H]3c3ccc(Cl)c(Cl)c3)ncn2)c(OC)cc1N1CCC(N2CCN(C(C)C)CC2)CC1 [compound 689, N-(5-((6-((R)-3-(3,4-dichlorophenyl)isoxazolidine-2-yl)pyrimidine-4-yl)amino)-2-(4-(4-isopropylpiperazine-1-yl)piperidine-1-yl)-4-methoxyphenyl) acrylamide] | B (50 nM ≤ GI50 < 500 nM) |
| C#Cc1cccc([C@H]2CCON2c2cc(Nc3cc(NC(=O)C=C)c(N4CCC(N5C[C@@H]6C[C@H]5CO6)CC4)cc3OC)ncn2)c1 [compound 618, N-(2-(4-((1S,4S)-2-oxa-5-azabicyclo[2.2.1]heptane-5-yl)piperidine-1-yl)-5-((6-((R)-3-(3-ethynylphenyl)isoxazolidine-2-yl)pyrimidine-4-yl)amino)-4-methoxyphenyl) acrylamide] | A (GI50 < 50 nM) |
| C=CC(=O)Nc1cc(Nc2cc(N3OCC[C@@H]3c3ccc(Cl)c(Cl)c3)ncn2)c(OC)cc1N1CCN(CC)CC1 [compound 672, N-(5-((6-((R)-3-(3,4-dichlorophenyl)isoxazolidine-2-yl)pyrimidine-4-yl)amino)-2-(4-ethylpiperazine-1-yl)-4-methoxyphenyl) acrylamide] | A (GI50 < 50 nM) |
| C=CC(=O)Nc1cc(Nc2cc(N3OCC[C@@H]3c3cc(F)cc(F)c3)ncn2)c(OC)cc1N1CCC(N2CCNCC2)CC1 [compound 754, N-(5-((6-((R)-3-(3,5-difluorophenyl)isoxazolidine-2-yl)pyrimidine-4-yl)amino)-4-methoxy-2-(4-(piperazine-1-yl)piperidine-1-yl)phenyl) acrylamide] | B (50 nM ≤ GI50 < 500 nM) |
| C=CC(=O)Nc1cc(Nc2cc(N3OCC[C@@H]3c3ccc(Cl)c(F)c3)ncn2)c(OC)cc1N1CCN(C2COC2)CC1 [compound 801, N-(5-((6-((R)-3-(4-chloro-3-fluorophenyl)isoxazolidine-2-yl)pyrimidine-4-yl)amino)-4-methoxy-2-(4-(oxetane-3-yl)piperazine-1-yl)phenyl)acrylamide] | A (GI50 < 50 nM) |
| C=CC(=O)Nc1cc(Nc2cc(N3OCC[C@@H]3c3ccc(C)nc3)ncn2)c(OC)cc1N1CCC(N(C)CCOC)CC1 [Example 229, N-(4-methoxy-2-(4-((2-methoxyethyl)(methyl)amino)piperidine-1-yl)-5-((6-((R)-3-(6-methylpyridine-3-yl)isoxazolidine-2-yl)pyrimidine-4-yl)amino)phenyl)acrylamide] | B (50 nM ≤ GI50 < 500 nM) |
| C=CC(=O)Nc1cc(Nc2cc(N3OCC[C@@H]3c3cccc(Cl)c3)ncn2)c(OC)cc1N1CCC(N2C[C@H]3C[C@@H]2CO3)CC1 [compound 472, N-(2-(4-((1R,4R)-2-oxa-5-azabicyclo[2.2.1]heptane-5-yl)piperidine-1-yl)-5-((6-((R)-3-(3-chlorophenyl)isoxazolidine-2-yl)pyrimidine-4-yl)amino)-4-methoxyphenyl) acrylamide] | A (GI50 < 50 nM) |
| C=CC(=O)Nc1cc(Nc2cc(N3OCC[C@@H]3c3cccc(C)c3F)ncn2)c(OC)cc1N1CCC(N2C[C@@H](C)N(C3CC3)C[C@H]2C)CC1 [Example 124, N-(2-(4-((2R,5R)-4-cyclopropyl-2,5-dimethylpiperazine-1-yl)piperidine-1-yl)-5-((6-((R)-3-(2-fluoro-3-methylphenyl)isoxazolidine-2-yl)pyrimidine-4-yl)amino)-4-methoxyphenyl) acrylamide] | A (GI50 < 50 nM) |
| C=CC(=O)Nc1cc(Nc2cc(N3OCC[C@@H]3c3ccc(F)c(Cl)c3)ncn2)c(OC)cc1N1CCN(CC)CC1 [compound 723, N-(5-((6-((R)-3-(3-chloro-4-fluorophenyl)isoxazolidine-2-yl)pyrimidine-4-yl)amino)-2-(4-ethylpiperazine-1-yl)-4-methoxyphenyl) acrylamide] | A (GI50 < 50 nM) |
| C=CC(=O)Nc1cc(Nc2cc(N3OCC[C@@H]3c3ccc(Cl)c(Cl)c3)ncn2)c(OC)cc1N1CCN(C)CC1 [compound 670, N-(5-((6-((R)-3-(3,4-dichlorophenyl)isoxazolidine-2-yl)pyrimidine-4-yl)amino)-4-methoxy-2-(4-methylpiperazine-1-yl)phenyl)acrylamide] | A (GI50 < 50 nM) |
